Test results: patent US6559166B1, “Phenylsulphonyl derivatives as 5-HT receptor ligands” (Merck Sharp & Dohme Ltd., priority 1999, dated 2003)

What was measured:
[1] = target: human dopamine D2 receptor (Homo sapiens, UniProt P14416); details: cited from earlier work
Sequence of human dopamine D2 receptor (P14416 whole entry): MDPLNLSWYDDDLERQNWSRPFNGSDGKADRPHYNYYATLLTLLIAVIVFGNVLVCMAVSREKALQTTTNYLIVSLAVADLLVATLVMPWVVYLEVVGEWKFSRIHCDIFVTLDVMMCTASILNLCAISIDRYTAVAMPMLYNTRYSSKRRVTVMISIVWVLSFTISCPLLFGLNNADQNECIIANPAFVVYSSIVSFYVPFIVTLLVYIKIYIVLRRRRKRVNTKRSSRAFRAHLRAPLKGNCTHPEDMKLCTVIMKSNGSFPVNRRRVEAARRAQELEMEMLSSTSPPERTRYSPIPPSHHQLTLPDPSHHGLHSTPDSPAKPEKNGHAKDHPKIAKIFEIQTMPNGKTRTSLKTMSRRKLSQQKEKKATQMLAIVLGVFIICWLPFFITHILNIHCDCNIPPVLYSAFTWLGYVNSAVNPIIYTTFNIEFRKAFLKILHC

| Compound | melting point [°C] | activity at the human dopamine D2 receptor [1] |
| --- | --- | --- |
| O=S(=O)(c1ccc(Cn2cnnn2)cc1)C1CCN(CCc2ccc(F)cc2F)CC1 [Example 12, 1-[2-(2,4-Difluorophenyl)ethyl]-4-[4-(tetrazol-1-ylmethyl)phenylsulphonyl]piperidine] | 168 to 169 | – |
| COc1cccc(C(O)C2CCN(CCc3ccc(F)cc3)CC2)c1OC (stereo not drawn) [MDL-100,907, (+)-α-(2,3-dimethoxyphenyl)-1-[2-(4-fluorophenyl)ethyl]-4-piperidinemethanol] | – | essentially devoid of activity |
